According to patent US8193369B2, “Benzimidazole cannabinoid agonists” (Janssen Pharmaceutica NV, priority 2007, dated 2012):

test: CB1 related side-effects: body temperature lowering, LAD; format: in vivo
Procedure: CB1 related undesired side-effects such as lowering of body temperature, flat body posture, and mydriasis were measured for a number of compounds of the present invention and a number of compounds covered by reference WO-2006/048754.

In the case of CCS(=O)(=O)c1ccc2c(c1)nc(CC(C)(C)C)n2CC1CCN(C(C)=O)CC1 [Co. No. 46], the “LAD (Lowest Acceptable Dose) at which lowering of body temperature was observed in more than half of the treated animals” value is reported as >40 mg/kg.

CC(C)(C)c1nc2cc(S(=O)(=O)CCCC(F)(F)F)ccc2n1CC1CCOCC1 [Co. No. B, reference compound] and CCS(=O)(=O)c1ccc2c(c1)nc(C(C)(C)C)n2CC1CCOCC1 [Co. No. F, reference compound] are the same in “LAD (Lowest Acceptable Dose) at which lowering of body temperature was observed in more than half of the treated animals” value: 10 mg/kg for the first, 10 mg/kg for the second.

Going from CC(C)(C)c1nc2cc(S(=O)(=O)C3CCCC3)ccc2n1CC1CCOCC1 [Co. No. C, reference compound] to CC(C)(C)c1nc2cc(S(=O)(=O)c3ccncc3)ccc2n1CC1CCOCC1 [Co. No. D, reference compound], the “LAD (Lowest Acceptable Dose) at which lowering of body temperature was observed in more than half of the treated animals” value rises from 5 mg/kg to 10 mg/kg (2-fold).
